Measured values: PubChem BioAssay (NCI)
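Compound exposure: 48 hours, 5 concentrations, 96-well plates. GI50: concentration for 50% inhibition of growth. Definition used: TGI = concentration required for complete inhibition of growth.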

Legend:
Test in all cases: NCI-60 cell line screen, 48 h
A549 NSCLC = system: A549 NSCLC
ACHN renal = system: ACHN renal
HCT-116 colon = system: HCT-116 colon
HOP-62 NSCLC = system: HOP-62 NSCLC
OVCAR-8 ovarian = system: OVCAR-8 ovarian
SF-268 CNS = system: SF-268 CNS
SF-295 CNS = system: SF-295 CNS
SK-OV-3 ovarian = system: SK-OV-3 ovarian
SR leukemia = system: SR leukemia
TK-10 renal = system: TK-10 renal

In the case of Cc1nc2ccccn2c1NC(=O)NNC(=S)Nc1ccc(Br)cc1, the GI50 (A549 NSCLC) is reported as 71.6 µM, the TGI (A549 NSCLC) is reported as > 100 µM and the GI50 (ACHN renal) is reported as 37.9 µM. For the same compound, the TGI (ACHN renal) was > 100 µM, the GI50 (HCT-116 colon) was 22.9 µM and the TGI (HCT-116 colon) was 62.9 µM. The GI50 (HOP-62 NSCLC) was 35.2 µM, the TGI (HOP-62 NSCLC) was > 100 µM and the GI50 (OVCAR-8 ovarian) was 63.8 µM. The TGI (OVCAR-8 ovarian) was > 100 µM, the GI50 (SF-268 CNS) was 67.9 µM and the TGI (SF-268 CNS) was > 100 µM. For the same compound, the GI50 (SF-295 CNS) was 57.5 µM, the TGI (SF-295 CNS) was > 100 µM and the GI50 (SK-OV-3 ovarian) was 33 µM. The TGI (SK-OV-3 ovarian) was 82.8 µM, the GI50 (SR leukemia) was 18.9 µM and the TGI (SR leukemia) was 55.6 µM. The GI50 (TK-10 renal) was 74.1 µM and the TGI (TK-10 renal) was > 100 µM.

In the case of CC(/C=C/C(=O)c1sc(-n2nc(-c3ccccc3)cc2-c2ccccc2)nc1C)=C\c1ccccc1, the TGI (A549 NSCLC) is reported as > 100 µM, the TGI (ACHN renal) is reported as > 100 µM and the TGI (HCT-116 colon) is reported as > 100 µM. The GI50 (HOP-62 NSCLC) was > 100 µM, the TGI (HOP-62 NSCLC) was > 100 µM and the TGI (OVCAR-8 ovarian) was > 100 µM. The TGI (SF-268 CNS) was > 100 µM, the GI50 (SF-295 CNS) was > 100 µM and the TGI (SF-295 CNS) was > 100 µM. The TGI (SK-OV-3 ovarian) was > 100 µM and the TGI (SR leukemia) was > 100 µM.

Cc1ncc(C(=O)Nc2ccc(CN3CCN(C)CC3)c(C(F)(F)F)c2)cc1C#Cc1cnc(N)c2cnccc12 was tested, and the GI50 (A549 NSCLC) was 0.202 µM, the TGI (A549 NSCLC) was 4.87 µM and the GI50 (ACHN renal) was 0.133 µM. For the same compound, the TGI (ACHN renal) was 1.03 µM, the GI50 (HCT-116 colon) was 0.0434 µM and the TGI (HCT-116 colon) was 1.23 µM. For the same compound, the GI50 (HOP-62 NSCLC) was 0.0854 µM, the TGI (HOP-62 NSCLC) was 1.34 µM and the GI50 (OVCAR-8 ovarian) was 0.112 µM. The TGI (OVCAR-8 ovarian) was 16.3 µM, the GI50 (SF-268 CNS) was 0.0791 µM and the TGI (SF-268 CNS) was 11.7 µM. The GI50 (SF-295 CNS) was 0.309 µM, the TGI (SF-295 CNS) was 14.8 µM and the GI50 (SK-OV-3 ovarian) was 0.162 µM. For the same compound, the TGI (SK-OV-3 ovarian) was 0.763 µM, the GI50 (SR leukemia) was 0.0456 µM and the TGI (SR leukemia) was 1.92 µM. It also gave a GI50 (TK-10 renal) of 0.132 µM and a TGI (TK-10 renal) of 1.93 µM.

For Cc1nnc(N=Nc2c(O)[nH]c3c(Cl)cc(Cl)cc23)n1N, the TGI (A549 NSCLC) was > 100 µM, the TGI (ACHN renal) was > 100 µM and the TGI (HCT-116 colon) was > 100 µM. For the same compound, the TGI (HOP-62 NSCLC) was > 100 µM, the TGI (OVCAR-8 ovarian) was > 100 µM and the TGI (SF-268 CNS) was > 100 µM. The TGI (SF-295 CNS) was > 100 µM, the TGI (SK-OV-3 ovarian) was > 100 µM and the TGI (SR leukemia) was > 100 µM. The TGI (TK-10 renal) was > 100 µM.

For NC(=O)C1c2ccccc2C=Cc2ccccc21, the GI50 (A549 NSCLC) was > 100 µM, the TGI (A549 NSCLC) was > 100 µM and the GI50 (ACHN renal) was > 100 µM. The TGI (ACHN renal) was > 100 µM, the GI50 (HCT-116 colon) was > 100 µM and the TGI (HCT-116 colon) was > 100 µM. For the same compound, the GI50 (HOP-62 NSCLC) was > 100 µM, the TGI (HOP-62 NSCLC) was > 100 µM and the GI50 (OVCAR-8 ovarian) was > 100 µM. The TGI (OVCAR-8 ovarian) was > 100 µM, the GI50 (SF-268 CNS) was > 100 µM and the TGI (SF-268 CNS) was > 100 µM. For the same compound, the GI50 (SF-295 CNS) was > 100 µM, the TGI (SF-295 CNS) was > 100 µM and the GI50 (SK-OV-3 ovarian) was > 100 µM. For the same compound, the TGI (SK-OV-3 ovarian) was > 100 µM, the GI50 (SR leukemia) was > 100 µM and the TGI (SR leukemia) was > 100 µM. The GI50 (TK-10 renal) was > 100 µM and the TGI (TK-10 renal) was > 100 µM.

In the case of CCN(CC)c1ccc(C2CC(c3cc(OC)c(OC)c(OC)c3)=NN2)cc1 (stereo unspecified), the GI50 (A549 NSCLC) is reported as 0.591 µM, the TGI (A549 NSCLC) is reported as > 32.2 µM and the GI50 (ACHN renal) is reported as 1.55 µM. The TGI (ACHN renal) was > 100 µM, the GI50 (HCT-116 colon) was 0.744 µM and the TGI (HCT-116 colon) was > 100 µM. For the same compound, the GI50 (HOP-62 NSCLC) was 0.456 µM, the TGI (HOP-62 NSCLC) was > 21.1 µM and the GI50 (OVCAR-8 ovarian) was 0.43 µM. The TGI (OVCAR-8 ovarian) was > 27.5 µM, the GI50 (SF-268 CNS) was 0.797 µM and the TGI (SF-268 CNS) was > 100 µM. The GI50 (SF-295 CNS) was 0.188 µM, the TGI (SF-295 CNS) was 5.19 µM and the GI50 (SK-OV-3 ovarian) was 0.537 µM. For the same compound, the TGI (SK-OV-3 ovarian) was > 100 µM, the GI50 (SR leukemia) was 0.286 µM and the TGI (SR leukemia) was 1.73 µM. The GI50 (TK-10 renal) was 36 µM and the TGI (TK-10 renal) was > 100 µM.

For Nc1ccccc1SC(CC(=O)c1ccccc1)c1ccc([N+](=O)[O-])cc1 (stereo unspecified), the GI50 (A549 NSCLC) was 16.6 µM, the TGI (A549 NSCLC) was 32.6 µM and the GI50 (ACHN renal) was 11.8 µM. It also gave a TGI (ACHN renal) of 24.2 µM, a GI50 (HCT-116 colon) of 1.67 µM and a TGI (HCT-116 colon) of 3.16 µM. The GI50 (HOP-62 NSCLC) was 14.5 µM, the TGI (HOP-62 NSCLC) was 28 µM and the GI50 (OVCAR-8 ovarian) was 14.1 µM. The TGI (OVCAR-8 ovarian) was 27.4 µM, the GI50 (SF-268 CNS) was 12.4 µM and the TGI (SF-268 CNS) was 25.8 µM. It also gave a GI50 (SF-295 CNS) of 16.1 µM, a TGI (SF-295 CNS) of 30 µM and a GI50 (SK-OV-3 ovarian) of 17.3 µM. The TGI (SK-OV-3 ovarian) was 31 µM, the GI50 (SR leukemia) was 2.57 µM and the TGI (SR leukemia) was 7.38 µM. The GI50 (TK-10 renal) was 18.6 µM and the TGI (TK-10 renal) was 32.7 µM.
